Literature values as cited in US8263660B2, “Stable hyperbaric composition comprising prilocaine HCl, use of said new composition for intrathecal anaethesia, and method for manufacturing said composition” (Sintetica S.A., priority 2006, dated 2012).

Details: intrathecal application, literature reference (4)

CCN(CC)CCOC(=O)c1ccc(N)cc1 [procaine]
inadequacy rate: ≤ 17%
